Our source for the Dmax and DC50 values is patent US20230002397A1, “SMALL MOLECULE DEGRADERS OF HELIOS AND METODS OF USE” (DANA-FARBER CANCER INSTITUTE, INC., priority 2019, published 2023).

This assay concerns the target T1, IKZF2 (Homo sapiens, UniProt Q96SW2+Q9UKS7).
T1 construct: CRISPR/Cas9—mediated insertion of the HiBiT peptide tag (Promega™) to the N-terminus of the IKZF2 gene locus; endogenous in cells; host or cells: MOLT4 cells, with CRISPR/Cas9 knock-in of HiBiT at the endogenous IKZF2 locus
The assay can be described thus: HiBit-IKZF2 assay (HiBiT-Helios degradation in MOLT4 cells). The format is cell-based. The following applies: for Dmax: MOLT-4, extent of degradation from highest to lowest concentration, 10 μM to 0.00026 μM, read-out: Dmax; for DC50: concentration at which 50% of HiBiT-Helios degradation was achieved. The procedure:
The HiBiT protein tagging system was applied to MOLT4 cells via a CRISPR/Cas9—mediated insertion of the HiBiT peptide tag (Promega™) to the N-terminus of the IKZF2 gene locus (Neon™ Transfection System). The resulting HiBiT-Helios stable cell line was treated with the following compounds in triplicates following a 13-point concentration scheme ranging from 10 μM to 0.00026 μM. At the indicated timepoints, the Nano-Glo® HiBiT Lytic Detection System (Promega™) was utilized for detecting bioluminescence of the HiBiT tag in treated cells: abundance of the tag is proportionate to the level of luminescence. Following normalization to DMSO, dose-response curves were plotted (GraphPad Prism) to determine the concentration points at which 50% of HiBiT-Helios degradation was achieved by each compound. The extent of degradation (range of luminescence) from the highest to lowest concentration points was calculated to determine the Dmax.
For orientation: HiBiT is a short tag that completes a luciferase, so light tracks the accessible tagged protein.

Structures are written as SMILES.

T1 sequence (Q9UKS7 whole entry): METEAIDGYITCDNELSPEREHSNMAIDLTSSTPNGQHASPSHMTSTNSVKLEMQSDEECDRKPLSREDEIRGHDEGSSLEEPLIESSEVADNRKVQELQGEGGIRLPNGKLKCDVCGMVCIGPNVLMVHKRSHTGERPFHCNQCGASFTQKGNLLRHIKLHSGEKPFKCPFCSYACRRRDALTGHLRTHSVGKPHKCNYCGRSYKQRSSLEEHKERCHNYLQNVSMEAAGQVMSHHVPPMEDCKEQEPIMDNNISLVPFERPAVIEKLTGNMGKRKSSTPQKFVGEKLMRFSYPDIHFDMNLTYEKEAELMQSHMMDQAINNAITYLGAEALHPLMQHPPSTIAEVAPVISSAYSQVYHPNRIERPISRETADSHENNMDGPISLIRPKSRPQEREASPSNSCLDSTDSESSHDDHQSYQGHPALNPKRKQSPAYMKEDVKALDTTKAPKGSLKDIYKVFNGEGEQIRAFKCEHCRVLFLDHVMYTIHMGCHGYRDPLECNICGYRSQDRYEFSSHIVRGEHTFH
T1 sequence (Q96SW2 whole entry): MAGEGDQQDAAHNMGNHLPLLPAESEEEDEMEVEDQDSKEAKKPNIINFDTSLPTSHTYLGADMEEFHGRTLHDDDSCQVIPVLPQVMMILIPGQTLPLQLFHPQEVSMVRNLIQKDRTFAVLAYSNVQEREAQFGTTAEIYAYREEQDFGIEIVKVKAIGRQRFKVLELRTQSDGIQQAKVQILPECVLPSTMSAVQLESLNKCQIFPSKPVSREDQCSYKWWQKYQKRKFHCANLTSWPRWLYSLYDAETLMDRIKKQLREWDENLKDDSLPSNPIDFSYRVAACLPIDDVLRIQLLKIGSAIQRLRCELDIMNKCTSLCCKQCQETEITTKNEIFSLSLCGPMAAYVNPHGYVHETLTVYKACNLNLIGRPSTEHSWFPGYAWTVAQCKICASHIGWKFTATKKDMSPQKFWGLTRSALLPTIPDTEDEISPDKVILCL
T1 sequence (Q16531 whole entry partner): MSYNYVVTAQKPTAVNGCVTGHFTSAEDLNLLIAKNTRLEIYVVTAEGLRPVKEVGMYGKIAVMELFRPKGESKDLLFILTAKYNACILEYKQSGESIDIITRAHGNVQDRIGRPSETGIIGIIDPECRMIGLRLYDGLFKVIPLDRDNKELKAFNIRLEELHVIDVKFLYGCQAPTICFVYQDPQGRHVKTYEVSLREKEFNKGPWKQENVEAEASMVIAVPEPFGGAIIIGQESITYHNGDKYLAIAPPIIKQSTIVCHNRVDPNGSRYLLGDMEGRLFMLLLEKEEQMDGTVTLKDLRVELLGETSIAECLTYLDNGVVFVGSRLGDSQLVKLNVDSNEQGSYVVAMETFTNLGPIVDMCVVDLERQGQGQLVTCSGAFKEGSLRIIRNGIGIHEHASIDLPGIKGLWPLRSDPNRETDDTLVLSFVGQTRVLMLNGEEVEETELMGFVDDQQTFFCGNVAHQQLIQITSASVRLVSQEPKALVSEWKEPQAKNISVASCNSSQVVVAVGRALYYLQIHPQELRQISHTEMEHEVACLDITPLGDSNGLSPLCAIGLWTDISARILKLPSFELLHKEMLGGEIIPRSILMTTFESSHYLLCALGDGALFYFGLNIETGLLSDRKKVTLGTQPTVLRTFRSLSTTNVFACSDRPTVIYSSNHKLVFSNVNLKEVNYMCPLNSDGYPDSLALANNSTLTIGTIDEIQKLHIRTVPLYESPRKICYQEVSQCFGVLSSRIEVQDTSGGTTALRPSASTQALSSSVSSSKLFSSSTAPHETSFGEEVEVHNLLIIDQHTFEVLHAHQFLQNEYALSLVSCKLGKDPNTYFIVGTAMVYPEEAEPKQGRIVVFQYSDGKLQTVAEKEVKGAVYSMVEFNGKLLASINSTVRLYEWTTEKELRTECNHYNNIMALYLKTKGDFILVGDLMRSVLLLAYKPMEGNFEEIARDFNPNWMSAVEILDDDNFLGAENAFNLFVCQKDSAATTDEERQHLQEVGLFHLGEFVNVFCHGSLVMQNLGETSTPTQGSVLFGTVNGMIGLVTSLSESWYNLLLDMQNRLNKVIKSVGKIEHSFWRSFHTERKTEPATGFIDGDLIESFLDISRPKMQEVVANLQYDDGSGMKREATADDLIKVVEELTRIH

For `O=C1CCC(N2Cc3cc(C4CCN(Cc5cnc(Nc6ccccc6)nc5)CC4)ccc3C2=O)C(=O)N1` (centres unmarked) [Compound 139], the Dmax (commonly the largest share of the target that was removed) was 50 to 70% and the DC50 (as a rule, the midpoint of the concentration-degradation curve) lay in the range of 0.03 to 0.15 µM.

For the compound `O=C1CCC(N2Cc3cc(C4CCN(Cc5ccc(C(=O)Nc6ccccc6)nc5)CC4)ccc3C2=O)C(=O)N1` (centres unmarked) [Compound 141], the maximal degradation (Dmax) fell in the range of 50 to 70% and the DC50 is 0.03 to 0.15 µM.

Regarding `O=C1CCC(N2Cc3cc(C4CCN(Cc5ccc(Nc6ccccc6)nc5)CC4)ccc3C2=O)C(=O)N1` (centres unmarked) [Compound 142], the Dmax is 50 to 70% and the 50% degradation concentration (DC50) was 0.01 to 0.03 µM.

For the compound `O=C1CCC(N2Cc3cc(C4CCN(Cc5ccccc5C(=O)Nc5ccccc5)CC4)ccc3C2=O)C(=O)N1` (centres unmarked) [Compound 144], the greatest degradation seen (Dmax) is 50 to 70% and the DC50 lay within 0.01 to 0.03 µM.

`O=C1CCC(N2Cc3cc(C4CCN(Cc5ccc(Nc6ccccn6)cc5)CC4)ccc3C2=O)C(=O)N1` (centres unmarked) [Compound 145]: the Dmax fell in the range of 50 to 70% and the DC50 fell in the range of 0.03 to 0.15 µM.

As for `O=C1CCC(N2Cc3cc(C4CCN(Cc5ccc6c(c5)C(=O)N(c5ccccc5)C6)CC4)ccc3C2=O)C(=O)N1` (centres unmarked) [Compound 146, 3-(1-oxo-5-(1-((3-oxo-2-phenylisoindolin-5-yl)methyl)piperidin-4-yl)isoindolin-2-yl)piperidine-2,6-dione], the Dmax was over 70% and the DC50 was in the range of 0.01 to 0.03 µM.

For `O=C1CCC(N2Cc3cc(C4CCN(Cc5ccc(N6CCCC6=O)cc5)CC4)ccc3C2=O)C(=O)N1` (centres unmarked) [Compound 147], the greatest degradation seen (Dmax) lay within 50 to 70% and the DC50 was 0.03 to 0.15 µM.

With `O=C1CCC(N2Cc3cc(C4CCN(Cc5cnc(Nc6ccccc6)s5)CC4)ccc3C2=O)C(=O)N1` (centres unmarked) [Compound 148], the Dmax is 50 to 70% and the DC50 lay within 0.01 to 0.03 µM.

With `O=C1CCC(N2Cc3cc(C4CCN(Cc5cccc(Nc6ncccn6)c5)CC4)ccc3C2=O)C(=O)N1` (centres unmarked) [Compound 149], the Dmax lay in the range of 50 to 70% and the DC50 is under 0.01 µM.

With `O=C1CCC(N2Cc3cc(C4CCN(Cc5cccc(C(=O)Nc6ccccn6)c5)CC4)ccc3C2=O)C(=O)N1` (centres unmarked) [Compound 156], the Dmax lay in the range of 50 to 70% and the DC50 is under 0.01 µM.

As for `O=C1CCC(N2Cc3cc(C4CCN(Cc5ccc(S(=O)(=O)Nc6ccccn6)cc5)CC4)ccc3C2=O)C(=O)N1` (centres unmarked) [Compound 157], the Dmax was in the range of 50 to 70% and the DC50 fell in the range of 0.03 to 0.15 µM.

For the compound `O=C1CCC(N2Cc3cc(C4CCN(Cc5ccc(C(=O)Nc6ccccc6)cc5)CC4)ccc3C2=O)C(=O)N1` (centres unmarked) [Compound 158], the Dmax fell in the range of 50 to 70% and the DC50 lay within 0.03 to 0.15 µM.

For the compound `O=C1CCC(N2Cc3cc(C4CCN(Cc5cccc(N6CCCCC6=O)c5)CC4)ccc3C2=O)C(=O)N1` (centres unmarked) [Compound 161], the Dmax was in the range of 30 to 50% and the DC50 lay within 0.01 to 0.03 µM.

Consider `O=C1CCC(N2Cc3cc(C4CCN(Cc5cccc(S(=O)(=O)N6C7CCC6COC7)c5)CC4)ccc3C2=O)C(=O)N1` (centres unmarked) [Compound 162], for which the Dmax was in the range of 50 to 70% and the DC50 is under 0.01 µM.

For the compound `O=C1CCC(N2Cc3cc(C4CCN(Cc5ccc(S(=O)(=O)N(c6ccccc6)C6COC6)cc5)CC4)ccc3C2=O)C(=O)N1` (centres unmarked) [Compound 165], the Dmax fell in the range of 50 to 70% and the DC50 was under 0.01 µM.

As for `O=C1CCC(N2Cc3cc(C4CCN(Cc5ccc(S(=O)(=O)N6CCc7ccccc76)cc5)CC4)ccc3C2=O)C(=O)N1` (centres unmarked) [Compound 167], the Dmax lay within 50 to 70% and the DC50 was under 0.01 µM.

As for `O=C1CCC(N2Cc3cc(C4CCN(Cc5ccc(S(=O)(=O)N6CCC7(CC7)C6)cc5)CC4)ccc3C2=O)C(=O)N1` (centres unmarked) [Compound 169], the Dmax was in the range of 50 to 70% and the DC50 was under 0.01 µM.

Take `CN(C(=O)c1ccccc1)c1ccc(CN2CCC(c3ccc4c(c3)CN(C3CCC(=O)NC3=O)C4=O)CC2)cc1` (centres unmarked) [Compound 170]: the Dmax lay within 50 to 70% and the DC50 was 0.01 to 0.03 µM.

For `O=C1CCC(N2Cc3cc(C4CCN(Cc5ccc6c(n5)C(=O)N(c5ccccc5)C6)CC4)ccc3C2=O)C(=O)N1` (centres unmarked) [Compound 172], the Dmax lay in the range of 30 to 50% and the DC50 lay within 0.01 to 0.03 µM.

As to `O=C1CCC(N2Cc3cc(C4CCN(Cc5cc6c(cn5)CN(c5ccccc5)C6=O)CC4)ccc3C2=O)C(=O)N1` (centres unmarked) [Compound 173], the Dmax was 50 to 70% and the 50% degradation concentration (DC50) was in the range of 0.01 to 0.03 µM.

As for `O=C1CCC(N2Cc3cc(C4CCN(Cc5ccc6c(c5)C(=O)N(c5ccccc5F)C6)CC4)ccc3C2=O)C(=O)N1` (centres unmarked) [Compound 174], the Dmax lay within 50 to 70% and the DC50 is under 0.01 µM.

As to `O=C1CCC(N2Cc3cc(C4CCN(Cc5ccc6c(c5)C(=O)N(c5cccc(F)c5)C6)CC4)ccc3C2=O)C(=O)N1` (centres unmarked) [Compound 175], the greatest degradation seen (Dmax) lay in the range of 50 to 70% and the DC50 is under 0.01 µM.

For `O=C1CCC(N2Cc3cc(C4CCN(Cc5ccc6c(c5)C(=O)N(c5cccc(Cl)c5)C6)CC4)ccc3C2=O)C(=O)N1` (centres unmarked) [Compound 176], the Dmax was over 70% and the DC50 lay in the range of 0.03 to 0.15 µM.

`N#Cc1ccc(N2Cc3ccc(CN4CCC(c5ccc6c(c5)CN(C5CCC(=O)NC5=O)C6=O)CC4)cc3C2=O)c(F)c1` (centres unmarked) [Compound 177]: the Dmax fell in the range of 50 to 70% and the DC50 is under 0.01 µM.

`O=C1CCC(N2Cc3cc(C4CCN(Cc5ccc6c(c5)C(=O)N(c5ncccn5)C6)CC4)ccc3C2=O)C(=O)N1` (centres unmarked) [Compound 178]: the Dmax lay in the range of 30 to 50% and the half-maximal degradation concentration (DC50) was in the range of 0.01 to 0.03 µM.

With `N#Cc1ccccc1N1Cc2ccc(CN3CCC(c4ccc5c(c4)CN(C4CCC(=O)NC4=O)C5=O)CC3)cc2C1=O` (centres unmarked) [Compound 179], the Dmax fell in the range of 50 to 70% and the DC50 was under 0.01 µM.

As to `O=C1CCC(N2Cc3cc(C4CCN(Cc5ccc6c(c5)C(=O)N(c5ccc(F)cc5)C6)CC4)ccc3C2=O)C(=O)N1` (centres unmarked) [Compound 180], the Dmax fell in the range of 50 to 70% and the DC50 was 0.01 to 0.03 µM.

For `O=C1CCC(N2Cc3cc(C4CCN(Cc5ccc6c(c5)C(=O)N(c5ncccn5)CC6)CC4)ccc3C2=O)C(=O)N1` (centres unmarked) [Compound 182], the Dmax is 50 to 70% and the DC50 was 0.03 to 0.15 µM.

Turning to `O=C1CCC(N2Cc3cc(C4CCN(Cc5ccc6c(c5)C(=O)N(c5ccccc5)CCC6)CC4)ccc3C2=O)C(=O)N1` (centres unmarked) [Compound 183, 3-(1-oxo-5-(1-((1-oxo-2-phenyl-2,3,4,5-tetrahydro-1H-benzo[c]azepin-8-yl)methyl)piperidin-4-yl)isoindolin-2-yl)piperidine-2,6-dione], the Dmax was 50 to 70% and the DC50 is under 0.01 µM.

For `O=C1CCC(N2Cc3cc(C4CCN(Cc5ccc6c(c5)C(=O)N(c5ccccn5)CCC6)CC4)ccc3C2=O)C(=O)N1` (centres unmarked) [Compound 184], the Dmax was in the range of 50 to 70% and the DC50 lay in the range of 0.01 to 0.03 µM.

In the case of `N#Cc1ccc(CN2CCC(c3ccc4c(c3)CN(C3CCC(=O)NC3=O)C4=O)CC2)nc1Nc1ccccc1` (centres unmarked) [Compound 186], the Dmax lay within 50 to 70% and the 50% degradation concentration (DC50) was 0.03 to 0.15 µM.

`O=C1CCC(N2Cc3cc(C4CCN(Cc5ccc(F)c(Nc6ccccc6)n5)CC4)ccc3C2=O)C(=O)N1` (centres unmarked) [Compound 187]: the Dmax lay in the range of 50 to 70% and the DC50 fell in the range of 0.01 to 0.03 µM.

`O=C1CCC(N2Cc3cc(C4CCN(Cc5cccc(Nc6ncccn6)c5F)CC4)ccc3C2=O)C(=O)N1` (centres unmarked) [Compound 188]: the Dmax lay within 50 to 70% and the half-maximal degradation concentration (DC50) is under 0.01 µM.

In the case of `O=C1CCC(N2Cc3cc(C4CCN(Cc5cnc(Nc6ccccc6)o5)CC4)ccc3C2=O)C(=O)N1` (centres unmarked) [Compound 191], the Dmax lay within 50 to 70% and the DC50 lay in the range of 0.01 to 0.03 µM.

`O=C1CCC(N2Cc3cc(C4(O)CCN(Cc5cccc(Oc6ccccc6)c5)CC4)ccc3C2=O)C(=O)N1` (centres unmarked) [Compound 193]: the greatest degradation seen (Dmax) is over 70% and the DC50 was under 0.01 µM.

Take `O=C1CCC(N2Cc3cc(C4(O)CCN(Cc5cccnc5Oc5ccccc5)CC4)ccc3C2=O)C(=O)N1` (centres unmarked) [Compound 195]: the Dmax lay within 50 to 70% and the DC50 is under 0.01 µM.

With `O=C1CCC(N2Cc3cc(C4(O)CCN(Cc5ccnc(Nc6ccccc6)n5)CC4)ccc3C2=O)C(=O)N1` (centres unmarked) [Compound 196], the Dmax was over 70% and the DC50 was under 0.01 µM.

`O=C1CCC(N2Cc3cc(C4(O)CCN(Cc5ccc(F)c(Nc6ccccc6)n5)CC4)ccc3C2=O)C(=O)N1` (centres unmarked) [Compound 197]: the Dmax lay within 50 to 70% and the DC50 was under 0.01 µM.

Regarding `O=C1CCC(N2Cc3cc(C4(O)CCN(Cc5ccnc(Nc6ccccc6)c5F)CC4)ccc3C2=O)C(=O)N1` (centres unmarked) [Compound 198], the Dmax was over 70% and the DC50 was under 0.01 µM.

Regarding `O=C1CCC(N2Cc3cc(C4(O)CCN(Cc5ccc6c(c5)C(=O)N(c5ccccc5)C6)CC4)ccc3C2=O)C(=O)N1` (centres unmarked) [Compound 200, 3-(5-(4-hydroxy-1-((3-oxo-2-phenylisoindolin-5-yl)methyl)piperidin-4-yl)-1-oxoisoindolin-2-yl)piperidine-2,6-dione], the Dmax is over 70% and the DC50 was under 0.01 µM.

As for `O=C1CCC(N2Cc3cc(C4(O)CCN(Cc5cccc6c5CCN(c5ccccn5)C6=O)CC4)ccc3C2=O)C(=O)N1` (centres unmarked) [Compound 202], the Dmax fell in the range of 50 to 70% and the DC50 was under 0.01 µM.

Consider `O=C1CCC(N2Cc3cc(C4(O)CCN(Cc5ccc6ccccc6c5)CC4)ccc3C2=O)C(=O)N1` (centres unmarked) [Compound 203], for which the Dmax was over 70% and the DC50 is under 0.01 µM.

Turning to `O=C1CCC(N2Cc3cc(C4(O)CCN(Cc5cccc6ccccc56)CC4)ccc3C2=O)C(=O)N1` (centres unmarked) [Compound 204], the Dmax is over 70% and the DC50 is under 0.01 µM.
